Test results from PMC7206119, “RIP1 inhibition blocks inflammatory diseases but not tumor growth or metastases” (Cell Death and Differentiation, 2019).

Key:
Assay in all cases: biochemical
Set-up in all cases: DiscoverX kinase panel, active-site competition binding (KINOMEscan type), percent of control at one concentration
Details in all cases: competition binding, percent of control
MINK = molecular target: T1, MINK (Homo sapiens, UniProt Q8N4C8)
T1 construct: gene MINK1
Excerpt: (§1) To investigate the potential therapeutic benefit of inhibiting RIP1, we developed GNE684 or (S)-N-((S)-7-methoxy-1-methyl-2-oxo-2,3,4,5-tetrahydro-1H-pyrido[3,4-b]azepin-3-yl)-5-phenyl-6,7-dihydro-5H-pyrrolo[1,2-b][1,2,4]triazole-2-carboxamide with cross-species potency against RIP1, exquisite kinase selectivity, and favorable pharmacological properties (Fig. 1a–h, S1, Tables S1 and S2, SI file 1). […] (Fig. 1b, S1, and Table S1). […] GNE684 inhibited human RIP1 potently in vitro, and mouse and rat RIP1 with slightly less potency (Fig. 1d). Accordingly, it inhibited TNF-induced necroptosis in human HT-29, mouse L929, or rat H9c2 cells (Fig. 1e). The cellular potency of GNE684 was confirmed in a human whole blood assay using TBZ (TNF, IAP antagonist BV6, and pan-caspase inhibitor zVAD) or LZ (LPS plus zVAD) to trigger necroptosis and the release of IL-1α and IL-1β (Fig. 1f).

[1] = molecular target: T2, RPS6KA5(Kin.Dom.1-N-terminal) (Homo sapiens, UniProt O75582)
T2 construct: Kin.Dom.1-N-terminal
Excerpt: as §1

IGF1R = IGF1R (Homo sapiens, UniProt P08069)
Excerpt: as §1

MST1 = molecular target: T3, MST1 (Homo sapiens, UniProt Q13043)
T3 construct: gene STK4
Excerpt: as §1

TNK1 = TNK1 (Homo sapiens, UniProt Q13470)
Sequence of TNK1 (Q13470 whole entry): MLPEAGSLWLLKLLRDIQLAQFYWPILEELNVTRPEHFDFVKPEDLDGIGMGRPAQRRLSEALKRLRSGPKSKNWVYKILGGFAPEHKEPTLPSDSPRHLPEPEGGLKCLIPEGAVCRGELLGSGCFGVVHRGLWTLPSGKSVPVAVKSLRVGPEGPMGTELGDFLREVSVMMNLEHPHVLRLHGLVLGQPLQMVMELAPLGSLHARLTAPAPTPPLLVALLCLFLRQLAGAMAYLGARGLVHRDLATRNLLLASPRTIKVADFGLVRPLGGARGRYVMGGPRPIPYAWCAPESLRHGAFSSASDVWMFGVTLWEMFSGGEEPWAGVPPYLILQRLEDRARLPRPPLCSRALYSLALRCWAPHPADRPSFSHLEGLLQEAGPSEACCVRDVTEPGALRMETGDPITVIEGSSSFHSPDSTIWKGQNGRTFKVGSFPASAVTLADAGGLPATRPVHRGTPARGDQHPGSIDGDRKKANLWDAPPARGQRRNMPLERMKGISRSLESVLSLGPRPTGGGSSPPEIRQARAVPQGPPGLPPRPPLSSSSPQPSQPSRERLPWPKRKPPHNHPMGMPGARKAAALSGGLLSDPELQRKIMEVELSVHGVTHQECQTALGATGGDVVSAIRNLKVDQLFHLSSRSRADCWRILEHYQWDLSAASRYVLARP
Excerpt: as §1

GRK2 = GRK2 (Homo sapiens, UniProt P25098)
Excerpt: as §1

ASK2 = molecular target: T4, ASK2 (Homo sapiens, UniProt O95382)
T4 construct: gene MAP3K6
T4 sequence (O95382 whole entry): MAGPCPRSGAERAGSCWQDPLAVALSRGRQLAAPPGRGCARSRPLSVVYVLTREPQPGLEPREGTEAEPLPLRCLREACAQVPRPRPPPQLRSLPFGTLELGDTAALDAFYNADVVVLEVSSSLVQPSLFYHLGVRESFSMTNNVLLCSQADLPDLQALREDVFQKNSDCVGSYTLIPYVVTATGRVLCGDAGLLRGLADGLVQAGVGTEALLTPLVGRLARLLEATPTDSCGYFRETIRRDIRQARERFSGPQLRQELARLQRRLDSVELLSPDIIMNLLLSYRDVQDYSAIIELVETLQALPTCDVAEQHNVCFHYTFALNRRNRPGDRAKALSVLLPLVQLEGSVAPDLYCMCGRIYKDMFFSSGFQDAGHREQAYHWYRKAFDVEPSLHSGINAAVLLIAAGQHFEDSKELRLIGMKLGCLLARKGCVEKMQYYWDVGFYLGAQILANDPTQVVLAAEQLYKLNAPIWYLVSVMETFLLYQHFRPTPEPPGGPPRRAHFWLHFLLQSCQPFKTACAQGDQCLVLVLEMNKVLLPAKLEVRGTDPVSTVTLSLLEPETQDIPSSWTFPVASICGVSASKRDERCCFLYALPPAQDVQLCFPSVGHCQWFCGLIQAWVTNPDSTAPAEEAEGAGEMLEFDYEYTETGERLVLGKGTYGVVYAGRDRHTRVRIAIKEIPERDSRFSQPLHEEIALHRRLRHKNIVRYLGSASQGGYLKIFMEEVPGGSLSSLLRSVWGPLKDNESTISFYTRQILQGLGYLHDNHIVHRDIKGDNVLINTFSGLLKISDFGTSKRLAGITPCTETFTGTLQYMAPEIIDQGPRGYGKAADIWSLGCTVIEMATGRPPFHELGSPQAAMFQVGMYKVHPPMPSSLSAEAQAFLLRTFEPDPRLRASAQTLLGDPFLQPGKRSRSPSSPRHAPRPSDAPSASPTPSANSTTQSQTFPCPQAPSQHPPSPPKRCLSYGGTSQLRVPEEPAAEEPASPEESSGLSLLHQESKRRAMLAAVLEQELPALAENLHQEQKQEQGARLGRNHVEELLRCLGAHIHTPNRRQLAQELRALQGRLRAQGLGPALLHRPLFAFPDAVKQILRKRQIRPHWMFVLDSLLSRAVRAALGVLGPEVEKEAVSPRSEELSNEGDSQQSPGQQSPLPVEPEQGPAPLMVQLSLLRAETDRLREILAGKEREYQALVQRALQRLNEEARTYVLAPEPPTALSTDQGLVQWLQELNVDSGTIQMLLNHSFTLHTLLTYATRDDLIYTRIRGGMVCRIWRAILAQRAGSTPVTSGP
Excerpt: as §1

[2] = molecular target: T5, RSK1(Kin.Dom.1-N-terminal) (Homo sapiens, UniProt Q15418)
T5 construct: gene RPS6KA1; Kin.Dom.1-N-terminal
T5 sequence (Q15418 whole entry): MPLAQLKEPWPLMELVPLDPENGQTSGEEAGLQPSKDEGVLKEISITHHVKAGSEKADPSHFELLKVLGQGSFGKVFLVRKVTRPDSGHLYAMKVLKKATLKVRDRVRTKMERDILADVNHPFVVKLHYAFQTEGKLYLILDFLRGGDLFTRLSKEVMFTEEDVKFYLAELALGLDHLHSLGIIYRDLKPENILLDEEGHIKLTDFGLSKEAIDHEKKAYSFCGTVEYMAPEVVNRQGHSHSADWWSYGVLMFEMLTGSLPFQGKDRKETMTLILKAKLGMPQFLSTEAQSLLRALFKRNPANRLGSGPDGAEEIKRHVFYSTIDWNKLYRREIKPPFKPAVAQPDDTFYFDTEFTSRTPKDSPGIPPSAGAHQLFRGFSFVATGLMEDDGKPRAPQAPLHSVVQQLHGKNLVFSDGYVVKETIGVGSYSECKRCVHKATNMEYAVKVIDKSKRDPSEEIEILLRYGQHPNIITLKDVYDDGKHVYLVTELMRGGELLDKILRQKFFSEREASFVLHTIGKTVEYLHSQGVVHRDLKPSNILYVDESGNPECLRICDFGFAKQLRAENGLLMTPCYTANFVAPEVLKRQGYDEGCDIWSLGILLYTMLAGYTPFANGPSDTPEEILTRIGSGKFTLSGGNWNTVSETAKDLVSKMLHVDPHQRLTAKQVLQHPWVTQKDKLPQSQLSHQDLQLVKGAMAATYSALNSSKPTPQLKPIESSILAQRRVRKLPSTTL
Excerpt: as §1

PLK3 = PLK3 (Homo sapiens, UniProt Q9H4B4)
Excerpt: as §1

HPK1 = molecular target: T6, HPK1 (Homo sapiens, UniProt Q92918)
T6 construct: gene MAP4K1
Excerpt: as §1

BRSK2 = BRSK2 (Homo sapiens, UniProt Q8IWQ3)
Excerpt: as §1

CDK8 = CDK8 (Homo sapiens, UniProt P49336)
Sequence of CDK8 (P49336 whole entry): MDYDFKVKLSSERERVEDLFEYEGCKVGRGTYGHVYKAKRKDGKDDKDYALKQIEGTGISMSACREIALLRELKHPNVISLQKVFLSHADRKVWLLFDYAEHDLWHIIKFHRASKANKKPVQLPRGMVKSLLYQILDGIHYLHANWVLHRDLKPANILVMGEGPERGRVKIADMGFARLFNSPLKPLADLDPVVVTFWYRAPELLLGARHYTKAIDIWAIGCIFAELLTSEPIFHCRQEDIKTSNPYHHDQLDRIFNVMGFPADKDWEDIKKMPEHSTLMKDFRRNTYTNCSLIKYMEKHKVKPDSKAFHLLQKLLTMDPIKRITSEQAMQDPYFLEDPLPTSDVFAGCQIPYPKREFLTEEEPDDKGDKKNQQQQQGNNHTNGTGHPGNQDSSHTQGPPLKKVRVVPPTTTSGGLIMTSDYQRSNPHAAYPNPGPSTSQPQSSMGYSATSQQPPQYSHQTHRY
Excerpt: as §1

MLK2 = molecular target: T7, MLK2 (Homo sapiens, UniProt Q02779)
T7 construct: gene MAP3K10
Excerpt: as §1

MYLK = MYLK (Homo sapiens, UniProt Q15746)
Excerpt: as §1

LCK = LCK (Homo sapiens, UniProt P06239)
Sequence of LCK (P06239 whole entry): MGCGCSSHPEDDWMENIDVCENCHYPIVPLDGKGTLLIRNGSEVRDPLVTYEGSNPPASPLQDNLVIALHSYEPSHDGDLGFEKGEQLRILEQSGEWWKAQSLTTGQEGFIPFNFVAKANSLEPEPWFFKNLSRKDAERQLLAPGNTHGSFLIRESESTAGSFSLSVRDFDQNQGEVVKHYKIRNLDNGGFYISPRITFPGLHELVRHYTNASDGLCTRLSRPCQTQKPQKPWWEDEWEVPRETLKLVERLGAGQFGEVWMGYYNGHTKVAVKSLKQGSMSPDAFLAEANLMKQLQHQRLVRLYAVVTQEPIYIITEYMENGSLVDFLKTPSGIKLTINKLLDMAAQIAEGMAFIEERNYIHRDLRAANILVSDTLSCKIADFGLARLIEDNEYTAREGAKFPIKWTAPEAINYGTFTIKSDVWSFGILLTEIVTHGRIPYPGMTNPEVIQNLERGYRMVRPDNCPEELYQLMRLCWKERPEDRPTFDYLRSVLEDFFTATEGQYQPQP
Excerpt: as §1

CDKL1 = CDKL1 (Homo sapiens, UniProt Q00532)
Excerpt: as §1

ERBB2 = ERBB2 (Homo sapiens, UniProt P04626)
Sequence of ERBB2 (P04626 whole entry): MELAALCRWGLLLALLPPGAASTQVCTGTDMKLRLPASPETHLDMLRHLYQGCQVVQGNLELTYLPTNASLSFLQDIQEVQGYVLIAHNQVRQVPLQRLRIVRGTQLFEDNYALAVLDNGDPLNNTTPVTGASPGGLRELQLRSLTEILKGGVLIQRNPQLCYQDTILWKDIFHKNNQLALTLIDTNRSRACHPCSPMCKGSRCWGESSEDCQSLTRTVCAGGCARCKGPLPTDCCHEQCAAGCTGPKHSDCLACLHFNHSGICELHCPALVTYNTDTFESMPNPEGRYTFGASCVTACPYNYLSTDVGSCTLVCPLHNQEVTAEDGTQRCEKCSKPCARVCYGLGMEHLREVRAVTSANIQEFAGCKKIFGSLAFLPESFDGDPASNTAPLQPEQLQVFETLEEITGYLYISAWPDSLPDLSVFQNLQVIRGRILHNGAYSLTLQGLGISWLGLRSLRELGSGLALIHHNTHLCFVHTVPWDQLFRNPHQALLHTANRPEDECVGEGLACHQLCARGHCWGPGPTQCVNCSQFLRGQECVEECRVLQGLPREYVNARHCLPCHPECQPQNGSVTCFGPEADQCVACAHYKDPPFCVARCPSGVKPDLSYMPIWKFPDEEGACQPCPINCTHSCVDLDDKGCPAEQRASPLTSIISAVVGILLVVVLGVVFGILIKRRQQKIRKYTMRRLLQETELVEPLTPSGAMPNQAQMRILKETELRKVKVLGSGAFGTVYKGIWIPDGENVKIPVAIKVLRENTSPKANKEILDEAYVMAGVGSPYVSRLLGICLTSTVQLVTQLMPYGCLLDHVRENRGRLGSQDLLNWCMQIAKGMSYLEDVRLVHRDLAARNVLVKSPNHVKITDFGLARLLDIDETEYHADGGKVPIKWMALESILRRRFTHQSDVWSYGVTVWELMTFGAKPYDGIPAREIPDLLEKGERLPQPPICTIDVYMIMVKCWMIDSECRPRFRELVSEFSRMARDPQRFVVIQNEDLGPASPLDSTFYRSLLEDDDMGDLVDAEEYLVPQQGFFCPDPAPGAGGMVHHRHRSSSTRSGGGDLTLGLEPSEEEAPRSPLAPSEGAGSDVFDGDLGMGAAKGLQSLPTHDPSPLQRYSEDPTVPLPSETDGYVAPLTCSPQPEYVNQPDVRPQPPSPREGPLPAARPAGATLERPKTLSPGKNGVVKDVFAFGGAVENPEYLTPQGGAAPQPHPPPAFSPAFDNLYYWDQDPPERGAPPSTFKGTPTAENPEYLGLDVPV
Excerpt: as §1

FER = FER (Homo sapiens, UniProt P16591)
Excerpt: as §1

MAST1 = MAST1 (Homo sapiens, UniProt Q9Y2H9)
Excerpt: as §1

MET = MET (Homo sapiens, UniProt P08581)
Excerpt: as §1

BUB1 = BUB1 (Homo sapiens, UniProt O43683)
Excerpt: as §1

COc1cc2c(cn1)N(C)C(=O)[C@@H](NC(=O)c1nc3n(n1)[C@H](c1ccccc1)CC3)CC2 [GNE684, (S)-N-((S)-7-methoxy-1-methyl-2-oxo-2,3,4,5-tetrahydro-1H-pyrido[3,4-b]azepin-3-yl)-5-phenyl-6,7-dihydro-5H-pyrrolo[1,2-b][1,2,4]triazole-2-carboxamide]
remaining binding at 10 µM (MINK): 100% | remaining binding at 10 µM [1]: 84% | remaining binding at 10 µM (IGF1R): 87% | remaining binding at 10 µM (MST1): 85% | remaining binding at 10 µM (TNK1): 100% | remaining binding at 10 µM (GRK2): 94% | remaining binding at 10 µM (ASK2): 98% | remaining binding at 10 µM [2]: 98% | remaining binding at 10 µM (PLK3): 89% | remaining binding at 10 µM (HPK1): 98% | remaining binding at 10 µM (BRSK2): 89% | remaining binding at 10 µM (CDK8): 97% | remaining binding at 10 µM (MLK2): 72% | remaining binding at 10 µM (MYLK): 99% | remaining binding at 10 µM (LCK): 86% | remaining binding at 10 µM (CDKL1): 74% | remaining binding at 10 µM (ERBB2): 76% | remaining binding at 10 µM (FER): 90% | remaining binding at 10 µM (MAST1): 94% | remaining binding at 10 µM (MET): 73% | remaining binding at 10 µM (BUB1): 100%
